“Also recorded” adds a separate entry of the source. Like-named read-outs stand apart in the source and are kept apart here.
Experiments:
[1] = test system: human neuronal heteromeric α3-containing nAChRs (α3β2, α3β4, etc.); assay type: cell-based
[2] = test system: hprt gene of CHO-k1 cells; conditions: n = 6
mice [3] = conditions: mouse, in vivo; cited from earlier work
[4] = human; cited from earlier work
Excerpt: Pharmacokinetics and pharmacodynamics are the empirical mathematical models that describe the time course of drug effect after administration. Pharmacokinetics describes the disposition of drug in the organism, while pharmacodynamics relates the drug effects to their concentration in the plasma and at the site of action. They can be used to predict the drug action at different doses and by this way to optimize the safe and effective use of the drug. Information from pharmacokinetic studies can be used in the design and analysis of data from other toxicity studies. Several pharmacokineti ...

mice [5] = conditions: 0.1 mg/kg; cited from earlier work
[6] = target: T1, human neuronal homopentameric α7 nAChR (Homo sapiens, UniProt P36544); assay: Calcium imaging of ACh-evoked [Ca2+]i rise in Neuro2a cells expressing α7 nAChR; assay type: cell-based; conditions: 10 μM ACh (EC50); transfected Neuro2a cells, PNU120596 10 μM; 15 min preincubation; mean ± SEM, 4 independent experiments; read-out: IC50, inhibition of ACh-evoked calcium response of α7 nAChR
T1 construct: expressed in transfected cells; host or cells: mouse neuroblastoma Neuro2a, transient transfection (α7 nAChR-pCEP4) with human Ric-3 (Ric3-pCMV6-XL5, OriGene)
Procedure: Mouse neuroblastoma Neuro2a cells were purchased from the Russian collection of cell cultures (Institute of Cytology, Russian Academy of Sciences, Saint Petersburg, Russia). Cells were cultured in DMEM (Paneco, Moscow, Russia) supplemented with 10% FBS. They were sub-cultured the day before transfection and were plated at a density of 10,000 cells per well in a 96-well black plate. On the next day Neuro2a cells were transiently transfected with plasmids coding mouse muscle α1β1δε nAChR (pRBG4-vector) and a fluorescent calcium sensor Case12 (pCase12-cyto vector, Evrogen, Moscow, Russia) in a molar ratio of 2:1 following a lipofectamine transfection protocol (ThermoFisher Scientific, Waltham, MA, USA). […]
(§1) The plates were transferred to the multimodal microplate reader Hidex Sence (Hidex, Turku, Finland) where the cells were excited by light of 485 nm wavelength and emitted fluorescence was detected at 535 ± 10 nm. Fluorescence was recorded every 2 s for three minutes following agonist addition. Responses were measured as peak intensity minus basal fluorescence level and were expressed as a percentage of the maximal response obtained to agonist. Data files were analyzed using Hidex Sence software (Hidex, Turku, Finland) and OriginPro 7.5 software (OriginLab, Northampton, MA, USA, for statistical analysis).

male ICR mice [7] = assay: in vivo
Procedure: Az acute toxicity was estimated for its intravenous (iv) and intramuscular (im) administration to male ICR mice in a stepwise procedure.
For the iv route of administration, 20 mice were randomly divided in 5 groups of 4 animals each. The animals of each group received a single dose of Az (0.3, 0.4, 0.5, 0.6, or 0.7 mg/kg, respectively) injected into the lateral tail vein at a volume of 1 mL/kg. For the im route of administration, first two experimental groups of 3 animals each were formed. Az at doses of 0.75 and 1.0 mg/kg, respectively, was injected into the quadriceps muscle of the thigh (quadriceps femoris muscle) of two mouse hind limbs at a volume of 0.5 mL/kg to each muscle. Then, five experimental groups of 5 animals each were formed. Az was injected into the quadriceps muscle of the thigh (quadriceps femoris muscle) of the two hind limbs of male ICR mice at doses of 0.8, 0.775, 0.75, 0.725 and 0.7 mg/kg. The injection volume to each limb was 1 mL/kg. Further, neurotoxic manifestations were recorded in animals at 5, 10, 20, 30, 60 and 90 min and 24 h after administration using the functional observation battery, the number of death was counted as well.
For the iv and im route of administration, the median lethal dose (LD50) was calculated using a probit analysis. For the im route of administration, the maximum tolerated dose was determined.
Rocuronium was administered intramuscularly at doses of 0.13 mg/kg (n = 1), 0.1 mg/kg (n = 4) and 0.08 mg/kg (n = 4) in the triceps of the forelimbs of male ICR mice (8–9 weeks old). Control animals were injected with saline (n = 4). The volume of administration was 0.5 mL/kg in each limb.

[8] = test system: cultured human peripheral blood lymphocytes; conditions: concentrations without significant cytotoxic effect; cited from earlier work
Excerpt: Mutagenicity, that is the induction of permanent transmissible changes in the amount or structure of the genetic material of cells or organisms, is very important parameter of drug candidate. Highly mutagenic compounds can hardly be considered for drug development, therefore mutagenicity studies are a necessary phase in preclinical evaluations.

rats = conditions: iv injection to rats; cited from earlier work
Procedure: Acute toxicity of Az was determined using different administration ways: intraperitoneal (ip), intramuscular (im) and intravenous (iv) injections.

male ICR mice [9] = assay: Forelimb grip strength test (muscle relaxant effect) after intramuscular administration; assay type: in vivo, mouse
Procedure: 40 male ICR mice were divided equally into four groups: one control and three experimental groups. Animals of the control and experimental groups were treated with normal saline and with Az at doses of 0.03, 0.1 and 0.3 mg/kg, respectively. In addition 6 mice were treated with Az at dose of 0.01 mg/kg. The corresponding solutions were injected into the triceps muscles of the mouse forelimbs at a volume of 0.5 mL/kg per each limb. For all animals their basic forelimb grip strength was recorded before the substance administration with a 1027 grip strength meter (Columbus Instruments, Columbus, OH, USA). Further, their grip strength was measured 5, 10, 15, 20, 30, 60, 90 min after the Az (or normal saline) im administration.
Rocuronium was administered intramuscularly as described for the measurement of acute toxicity (Section 5.4.1). Muscle strength was assessed prior to administration of the substance and then 1, 2, 3, 4, 5 min after administration.

[10] = target: T2, mouse muscle type α1β1εδ nAChR (Mus musculus, UniProt P02716+P04756+P20782); assay: Calcium imaging of ACh-evoked [Ca2+]i rise in Neuro2a cells expressing muscle nAChR (Case12 sensor); assay type: cell-based
T2 construct: expressed in transfected cells; host or cells: mouse neuroblastoma Neuro2a, transient transfection (pRBG4 plasmids), co-expressed with Case12 calcium sensor
Procedure: Mouse neuroblastoma Neuro2a cells were purchased from the Russian collection of cell cultures (Institute of Cytology, Russian Academy of Sciences, Saint Petersburg, Russia). Cells were cultured in DMEM (Paneco, Moscow, Russia) supplemented with 10% FBS. They were sub-cultured the day before transfection and were plated at a density of 10,000 cells per well in a 96-well black plate. On the next day Neuro2a cells were transiently transfected with plasmids coding mouse muscle α1β1δε nAChR (pRBG4-vector) and a fluorescent calcium sensor Case12 (pCase12-cyto vector, Evrogen, Moscow, Russia) in a molar ratio of 2:1 following a lipofectamine transfection protocol (ThermoFisher Scientific, Waltham, MA, USA). Human α7 nAChR (α7 nAChR-pCEP4) was expressed accordingly with a co-expression of the human chaperone Ric-3 (Ric3-pCMV6-XL5, OriGene, Rockville, MD, USA) in a molar ratio 4:1. The transfected cells were grown at 37 °C in a CO2 incubator for 48–72 h, before performing the calcium imaging assay.
Calcium imaging procedure was performed as published earlier. Briefly, after removing the growth medium, the transfected Neuro2a cells and cultivated SH-SY5Y cells were washed with a buffer containing 140 mM NaCl, 2 mM CaCl2, 2.8 mM KCl, 4 mM MgCl2, 20 mM HEPES, 10 mM glucose; pH 7.4. Neuro2a cells expressing muscle nAChR and the protein calcium sensor Case12 were proceeded directly, while SH-SY5Y cells expressing human α3-containing nAChRs natively were loaded with a fluorescent dye Fluo-4, AM (1.824 μM, ThermoFisher Scientific, Waltham, MA, USA) and a water-soluble probenecid (1.25 mM, ThermoFisher Scientific, Waltham, MA, USA) for 30 min at 37 °C and then were kept for 30 min at room temperature according to the manufacturer’s protocol.
To detect the human α7 nAChR-mediated calcium response, transfected Neuro2a cells were incubated with its positive allosteric modulator PNU120596 (10 μM, Tocris Bioscience, Bristol, UK) for 20 min at room temperature before acetylcholine (Sigma-Aldrich Chemie Gmbh, Munich, Germany) addition. To assess mouse muscle or human α3-containing nAChRs this step was skipped. […]
as §1

[11] = Procedure: The pharmacokinetic study was performed using 163 male ICR mice. Four experimental groups with 40 animals in each were formed. Three intact mice were used as control animals. The animals of the first two experimental groups were intravenously injected with 0.25 and 0.50 mg/kg [^125I]-Az, respectively. The animals of the other two experimental groups were intramuscularly injected with 0.25 and 0.50 mg/kg [^125I]-Az, respectively. To estimate Az elimination rate, animal blood samples were taken from the orbital sinus 5, 15, 30, 60 min and 1, 2, 4 and 24 h after [^125I]-Az administration. The obtained blood samples were weighed. For each indicated time point, [^125I]-Az concentration was calculated as a mean value in blood samples of five animals. The radioactivity (cpm) in the blood samples was counted using a Wallac 1470 WIZARD® Gamma Counter (Perkin Elmer, Waltham, MA, USA). […] Radioactivity data (cpm) were re-calculated to the concentration of [^125I]-Az in the obtained blood samples. The specific pharmacokinetic parameters (AUC (0 → t), Cmax, T1/2) of [^125I]-Az were estimated.
[12] = intramuscular administration, 0.25 and 0.5 mg/kg, male ICR mice

T2 sequence (P09690 24-501): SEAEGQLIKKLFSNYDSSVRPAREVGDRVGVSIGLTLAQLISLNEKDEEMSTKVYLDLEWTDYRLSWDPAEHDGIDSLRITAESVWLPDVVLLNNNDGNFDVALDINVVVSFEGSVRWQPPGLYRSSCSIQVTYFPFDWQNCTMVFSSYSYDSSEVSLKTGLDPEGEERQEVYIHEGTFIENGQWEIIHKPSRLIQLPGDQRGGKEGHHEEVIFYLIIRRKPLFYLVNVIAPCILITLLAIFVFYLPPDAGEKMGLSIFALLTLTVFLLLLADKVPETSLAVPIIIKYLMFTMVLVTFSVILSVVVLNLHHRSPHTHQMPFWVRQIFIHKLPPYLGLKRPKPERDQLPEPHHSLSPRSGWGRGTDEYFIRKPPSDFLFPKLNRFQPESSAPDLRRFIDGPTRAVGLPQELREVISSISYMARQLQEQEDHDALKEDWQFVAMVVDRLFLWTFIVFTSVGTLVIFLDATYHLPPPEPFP
T2 sequence (P04756 21-457): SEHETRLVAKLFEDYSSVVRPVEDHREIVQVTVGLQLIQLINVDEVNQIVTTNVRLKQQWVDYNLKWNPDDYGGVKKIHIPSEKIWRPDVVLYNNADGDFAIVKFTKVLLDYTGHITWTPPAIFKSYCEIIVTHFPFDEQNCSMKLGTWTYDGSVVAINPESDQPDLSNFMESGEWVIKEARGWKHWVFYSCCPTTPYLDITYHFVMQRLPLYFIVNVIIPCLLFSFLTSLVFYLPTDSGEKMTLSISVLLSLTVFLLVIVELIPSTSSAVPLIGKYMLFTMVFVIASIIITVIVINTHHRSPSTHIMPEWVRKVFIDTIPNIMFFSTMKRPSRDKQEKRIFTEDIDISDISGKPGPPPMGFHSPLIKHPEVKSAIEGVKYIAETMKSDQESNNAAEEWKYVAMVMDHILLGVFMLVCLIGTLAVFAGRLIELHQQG
T2 sequence (P02716 25-520): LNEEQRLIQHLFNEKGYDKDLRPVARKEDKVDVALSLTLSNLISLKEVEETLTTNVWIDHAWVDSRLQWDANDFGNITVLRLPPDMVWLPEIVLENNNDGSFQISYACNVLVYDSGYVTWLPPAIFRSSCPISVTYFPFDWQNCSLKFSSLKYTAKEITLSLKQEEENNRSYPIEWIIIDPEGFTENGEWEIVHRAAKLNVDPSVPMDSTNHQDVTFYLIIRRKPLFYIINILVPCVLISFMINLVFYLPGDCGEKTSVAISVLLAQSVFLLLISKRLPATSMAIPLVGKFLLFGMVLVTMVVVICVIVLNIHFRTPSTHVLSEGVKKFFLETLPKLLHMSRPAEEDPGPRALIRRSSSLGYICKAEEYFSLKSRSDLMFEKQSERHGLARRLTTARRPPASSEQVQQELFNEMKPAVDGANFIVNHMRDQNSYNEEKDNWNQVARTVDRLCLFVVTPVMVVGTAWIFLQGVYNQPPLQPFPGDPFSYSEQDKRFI
T2 sequence (P20782 21-493): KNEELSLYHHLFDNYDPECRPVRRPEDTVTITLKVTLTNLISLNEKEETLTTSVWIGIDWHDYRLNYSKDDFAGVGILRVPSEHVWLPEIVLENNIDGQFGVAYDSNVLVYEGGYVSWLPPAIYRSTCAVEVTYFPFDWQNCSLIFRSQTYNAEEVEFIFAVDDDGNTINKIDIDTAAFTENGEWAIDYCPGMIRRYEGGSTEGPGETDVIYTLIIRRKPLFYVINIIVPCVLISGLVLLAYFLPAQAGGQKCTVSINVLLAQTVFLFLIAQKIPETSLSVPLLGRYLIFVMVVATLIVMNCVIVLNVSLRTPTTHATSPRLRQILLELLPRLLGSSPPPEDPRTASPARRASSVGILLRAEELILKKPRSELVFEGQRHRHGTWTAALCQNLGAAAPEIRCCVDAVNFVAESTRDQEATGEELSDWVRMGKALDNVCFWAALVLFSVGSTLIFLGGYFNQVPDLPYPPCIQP
T1 sequence (P36544 23-502): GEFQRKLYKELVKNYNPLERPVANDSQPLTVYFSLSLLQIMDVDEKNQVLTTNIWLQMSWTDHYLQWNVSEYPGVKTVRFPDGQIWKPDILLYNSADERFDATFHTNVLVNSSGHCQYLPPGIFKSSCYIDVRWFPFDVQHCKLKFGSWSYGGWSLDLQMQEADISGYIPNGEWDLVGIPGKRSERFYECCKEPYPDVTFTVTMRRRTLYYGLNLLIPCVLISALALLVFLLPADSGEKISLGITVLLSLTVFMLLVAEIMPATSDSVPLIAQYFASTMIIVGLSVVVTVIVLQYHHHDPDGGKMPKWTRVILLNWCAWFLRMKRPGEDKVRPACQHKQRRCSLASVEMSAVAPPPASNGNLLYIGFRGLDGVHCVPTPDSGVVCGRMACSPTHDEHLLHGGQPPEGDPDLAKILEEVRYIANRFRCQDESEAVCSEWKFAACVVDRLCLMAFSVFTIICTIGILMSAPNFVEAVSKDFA

Compound: α-conotoxin MII [reference compound]
- IC50 ([1]; read-out: IC50, inhibition of calcium responses induced by 100 µM nicotine): 0.06 ± 0.004 µM

Compound: CCN(N=O)C(N)=O [ethylnitrosurea, reference compound]
- frequency of mutations in the hprt gene ([2]; positive control 6.25 and 12.5 μg/mL, absence of S9): 33.9–39.5 × 10^−6

Compound: CC(=O)O[C@H]1C[C@@H]2CC[C@@H]3[C@H](CC[C@@]4(C)[C@H]3C[C@H]([N+]3(C)CCCCC3)[C@@H]4OC(C)=O)[C@@]2(C)C[C@@H]1N1CCCCC1 [vecuronium]
- LD50 (mice [3]): 0.05 mg/kg
- Cmax [4]: about 1 µg/mL

Compound: COc1cc2c3cc1Oc1cc(ccc1O)C[C@@H]1c4c(cc(OC)c(O)c4Oc4ccc(cc4)C[C@@H]3N(C)CC2)CC[N+]1(C)C [(+)-tubocurarine]
- LD50 (mice [3]): 0.11 mg/kg

Compound: CN1CCC[C@H]1c1cccnc1 [nicotine, reference compound]
- EC50 ([1]; read-out: EC50 of nicotine-induced calcium responses): 22 ± 2 µM

Compound: CC(=O)O[C@H]1C[C@@H]2CC[C@@H]3[C@H](CC[C@@]4(C)[C@H]3C[C@H]([N+]3(C)CCCCC3)[C@@H]4OC(C)=O)[C@@]2(C)C[C@@H]1[N+]1(C)CCCCC1 [pancuronium]
- decrease of grip strength (mice [5]): 24.1%

Compound: C=CC[N+]1([C@H]2C[C@H]3[C@@H]4CC[C@H]5C[C@H](O)[C@@H](N6CCOCC6)C[C@]5(C)[C@H]4CC[C@]3(C)[C@H]2OC(C)=O)CCCC1 [rocuronium, Rocuronium Bromide, reference compound]
- IC50 [6]: 25.7 ± 4.5 µM
- visible signs of toxicity (male ICR mice [7]; rocuronium im 0.08 mg/kg): did not induce visible signs of toxicity
- time after administration at which toxicity signs disappeared (male ICR mice [7]; rocuronium im 0.1 mg/kg): 3 to 4 min
- time of first signs of intoxication after injection (male ICR mice [7]; rocuronium im 0.13 mg/kg): 30 s
- time of death after injection (male ICR mice [7]; rocuronium im 0.13 mg/kg, n = 1): 11.5 min
- lethality (male ICR mice [7]; rocuronium im 0.08 and 0.1 mg/kg, n = 4 each): did not cause the death of animals
- genotoxicity [8]: capable of causing genotoxicity via clastogenic effects
- LD50 (rats): about 0.3 mg/kg
- effect on grip strength compared to control (male ICR mice [9]; rocuronium 0.08 mg/kg im, n = 4): no statistically significant difference; also recorded: no statistically significant relaxing effect
- grip strength (male ICR mice [9]; rocuronium 0.13 mg/kg im, after 60 s, n = 1): 0 kg
- time after injection at which effect disappeared (male ICR mice [9]; rocuronium im): ≤ 5 min
- Cmax [4]: 27 µg/kg
- excretion half-life [4]: 71 min
- inhibition of Nic induced responses [1]: about 60%
- IC50 ([10]; 30 μM ACh (EC100), transfected Neuro2a cells, Case12 sensor, 15 min preincubation, mean ± SEM, 4 independent experiments, read-out: IC50, inhibition of ACh-evoked calcium response of muscle nAChR): 0.257 ± 0.0955 µM
- selectivity to muscle receptor versus α7 nAChR ([10]; ratio of calcium imaging IC50 values α7 / muscle): about 100 times

Compound: Cc1ccc2cc3c(ccc4ccccc43)c3c2c1CC3 [methylcholanthrene, reference compound]
- frequency of mutations in the hprt gene ([2]; positive control 2.5 and 5 μg/mL, presence of S9): 35.7–45.7 × 10^−6

Compound: diiodoazemiopsin [[^125I]-Az]
- lethality (male ICR mice [7]; [125I]-Az single iv and im 0.25 and 0.50 mg/kg, male ICR mice): No lethality
- removal from the free blood flow ([11]; during 24 h, both iv and im administration): almost completely removed
- half-life T1/2 [11, 12]: 20 to 40 min
- time within which maximum concentration (Cmax) was achieved [11, 12]: five
- excretion half-life (T1/2) ([11]; single intravenous injection, 0.25 and 0.5 mg/kg, male ICR mice): 15 to 20 min

Compound: COc1ccc(CC2c3cc(OC)c(OC)cc3CC[N+]2(C)CCC(=O)OCCCCCOC(=O)CC[N+]2(C)CCc3cc(OC)c(OC)cc3C2Cc2ccc(OC)c(OC)c2)cc1OC (stereo not drawn) [atracurium]
- excretion half-life [4]: 17 min

Source: PMC5793121 (Toxins, 2018)
